According to ChEMBL document CHEMBL4765282, “Design, synthesis and biological evaluation of 1H-pyrazolo [3,4-d]pyrimidine derivatives as PAK1 inhibitors that trigger apoptosis, ER stress and anti-migration effect in MDA-MB-231 cells” (Eur J Med Chem, 2020):
Activity calls are given as the source filed them. The rule behind the calls is not given here.

How the values were obtained:
[1] = Effect on HERPUD1 gene expression in human MDA-MB-231 cells by Trizol reagent based RNA sequencing analysis relative to control; format: functional
MDA-MB-231 = experiment: Up regulation of MMP-2 expression in human MDA-MB-231 cells at 10 to 40 uM measured after 24 hrs by Western blot analysis; format: functional, cell-based; conditions: dose 10-40 µM

For `O=C(Nc1cc(C(F)(F)F)cc(C(F)(F)F)c1)NC1CCN(c2ncnc3[nH]ncc23)CC1`, the “fold change (FC)” value [1] was greater than 2 and the Activity (MDA-MB-231) was “Active”.
